Measured values published in patent publication US20130217664A1, “NOVEL COMPOUNDS USEFUL FOR THE TREATMENT OF DEGENERATIVE AND INFLAMMATORY DISEASES” (priority 2012, published 2013).
Where two headings read alike, the source gives them in different places.

Columns and labels:
human TYK2 = target: T1, human TYK2 (Homo sapiens, UniProt P29597); test: TYK2 inhibition assay; format: biochemical; conditions: recombinant human TYK2 catalytic domain, polyGT substrate
T1 construct: catalytic domain (amino acids 871-1187; catalog number 08-147); purchased Carna Biosciences 08-147
T1 sequence (P29597 871-1187): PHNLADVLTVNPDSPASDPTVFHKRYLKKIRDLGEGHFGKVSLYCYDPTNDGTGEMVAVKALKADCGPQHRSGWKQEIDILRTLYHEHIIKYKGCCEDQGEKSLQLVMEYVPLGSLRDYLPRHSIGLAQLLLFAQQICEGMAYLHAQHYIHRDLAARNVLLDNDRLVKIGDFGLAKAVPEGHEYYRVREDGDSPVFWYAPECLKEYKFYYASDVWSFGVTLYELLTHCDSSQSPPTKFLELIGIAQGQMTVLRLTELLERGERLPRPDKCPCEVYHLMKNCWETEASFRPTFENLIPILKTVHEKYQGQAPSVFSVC
Method in brief: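 Radiometric kinase reaction run 90 min at 30 °C, stopped with phosphoric acid, washed and scintillation-counted.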

human JAK1 = target: T2, human JAK1 (Homo sapiens, UniProt P23458); test: JAK1 inhibition assay (polyGT substrate / Ulight-JAK1 peptide); format: biochemical; conditions: recombinant human JAK1 catalytic domain; polyGT or Ulight-JAK1 peptide assay
T2 construct: catalytic domain, amino acids 866-1154; catalog number PV4774; purchased Invitrogen PV4774
T2 sequence (P23458 866-1154): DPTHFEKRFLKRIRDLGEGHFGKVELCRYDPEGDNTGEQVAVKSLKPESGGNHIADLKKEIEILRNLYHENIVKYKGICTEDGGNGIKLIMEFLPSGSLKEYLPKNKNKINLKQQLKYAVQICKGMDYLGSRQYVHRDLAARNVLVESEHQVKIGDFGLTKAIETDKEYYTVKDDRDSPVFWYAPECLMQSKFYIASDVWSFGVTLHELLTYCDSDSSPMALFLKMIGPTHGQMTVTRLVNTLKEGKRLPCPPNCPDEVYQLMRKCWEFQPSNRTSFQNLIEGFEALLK
Method in brief: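 Two formats. PolyGT radiometric: 45 min at 30 °C, stopped with phosphoric acid, counted as cpm. Ulight-JAK1 peptide: 60 min at room temperature, stopped with Eu-anti-phosphotyrosine/EDTA, read as RFU. Percent inhibition normalised to vehicle and 10 μM staurosporine.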

human JAK3 = target: T3, human JAK3 (Homo sapiens, UniProt P52333); test: JAK3 inhibition assay; format: biochemical; conditions: recombinant human JAK3 catalytic domain; polyGT substrate
T3 construct: catalytic domain (amino acids 781-1124; catalog number PV3855); purchased Invitrogen PV3855
T3 sequence (P52333 781-1124): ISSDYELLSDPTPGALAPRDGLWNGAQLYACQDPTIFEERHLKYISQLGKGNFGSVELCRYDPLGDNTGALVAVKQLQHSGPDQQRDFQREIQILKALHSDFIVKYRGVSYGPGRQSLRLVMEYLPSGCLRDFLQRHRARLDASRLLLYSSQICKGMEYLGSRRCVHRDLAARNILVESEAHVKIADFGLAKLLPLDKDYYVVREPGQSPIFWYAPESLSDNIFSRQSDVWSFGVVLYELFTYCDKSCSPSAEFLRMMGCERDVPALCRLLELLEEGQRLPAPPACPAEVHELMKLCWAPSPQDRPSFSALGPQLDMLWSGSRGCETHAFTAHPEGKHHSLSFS
Method in brief: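 Radiometric kinase assay: 0.5 ng JAK3 with 2.5 μg polyGT in Tris pH 7.5/MgCl2 buffer, 1 μM ATP plus 0.25 μCi 33P-γ-ATP, 1% DMSO, 45 min at 30 °C, stopped with phosphoric acid.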

[1] = test system: pSTAT1(2)-luciferase reporter in HeLa cells triggered with human OSM; test: JAK-STAT signalling assay; format: cell-based; conditions: read-out: JAK-STAT IC50
Method: JAK-STAT Signalling Assay
HeLa cells were maintained in Dulbecco's Modified Eagle's Medium (DMEM) containing 10% heat inactivated fetal calf serum, 100 U/mL penicillin and 100 μg/mL streptomycin. HeLa cells were used at 70% confluence for transfection. 20,000 cells in 87 μL cell culture medium were transiently transfected with 40 ng pSTAT1(2)-luciferase reporter (Panomics), 8 ng of LacZ reporter as internal control reporter and 52 ng of pBSK using 0.32 μL Jet-PEI (Polyplus) as transfection reagent per well in 96-well plate format. After overnight incubation at 37° C., 5% CO2, transfection medium was removed. 81 μL of DMEM+1.5% heat inactivated fetal calf serum was added. 9 μL compound at 10× concentration was added for 60 min and then 10 μL of human OSM (Peprotech) at 33 ng/mL final concentration.
After overnight incubation at 37° C., 5% CO2 cells were lysed by adding 100 μL lysis buffer/well (PBS, 0.9 mM CaCl2, 0.5 mM MgCl2, 10% Trehalose, 0.05% Tergitol NP9, 0.3% BSA).
40 μL of cell lysate was used to read β-galactosidase activity by adding 180 μL β-Gal solution (30 μL ONPG 4 mg/mL+150 μL β-Galactosidase buffer (0.06 M Na2HPO4, 0.04 M NaH2PO4, 1 mM MgCl2)) for 20 min.
Luciferase activity was measured using 40 μL cell lysate plus 40 μL of Steadylite as described by the manufacturer (Perkin Elmer), on the Envision (Perkin Elmer).
The positive and negative controls were used to calculate z′ and ‘percent inhibition’ (PIN) values.
Percentage inhibition=((fluorescence determined in the presence of vehicle−fluorescence determined for sample with test compound present)divided by(fluorescence determined in the presence of vehicle−fluorescence determined for sample without trigger))*100.
PIN values were plotted for compounds tested in dose-response and EC50 values were derived.

[2] = Homo sapiens, HeLa, HeLa cells, pSTAT1(2)-luciferase reporter, human OSM 33 ng/mL
[3] = HeLa cells, pSTAT1(2)-luciferase reporter, human OSM 33 ng/mL

SMILES | IC50 (human TYK2) | IC50 (human JAK1) | IC50 (human JAK3) | IC50 [1, 2] | IC50 [1, 3] | IC50 ([1]; Homo sapiens, HeLa)
CN(c1cc2c(cn1)ncn2C)c1ccc(C#N)cc1F [Compound 267, 3-fluoro-4-(methyl(1-methyl-1H-imidazo[4,5-c]pyridin-6-yl)amino)benzonitrile] | > 1000 nM | 501 to 1000 nM | > 1000 nM | > 1000 nM | – | –
CCc1cc(CNC(=O)NC)ccc1N(C)c1cc2c(cn1)ncn2C [Compound 270, 1-(3-ethyl-4-(methyl(1-methyl-1H-imidazo[4,5-c]pyridin-6-yl)amino)benzyl)-3-methylurea] | > 1000 nM | 101 to 500 nM | > 1000 nM | > 1000 nM | – | –
CCc1cc(CN2CCN(C)CC2)ccc1N(C)c1cc2c(cn1)ncn2C [Compound 141, N-(2-ethyl-4-((4-methylpiperazin-1-yl)methyl)phenyl)-N,1-dimethyl-1H-imidazo[4,5-c]pyridin-6-amine] | > 1000 nM | 101 to 500 nM | > 1000 nM | > 1000 nM | – | –
CCc1cc(CNC)ccc1N(C)c1cc2c(cn1)ncn2C [Compound 135, N-(2-ethyl-4-((methylamino)methyl)phenyl)-N,1-dimethyl-1H-imidazo[4,5-c]pyridin-6-amine] | > 1000 nM | 0.01 to 100 nM | > 1000 nM | > 1000 nM | – | –
CCc1cc(C(=O)NCCO)ccc1N(C)c1cc2c(cn1)ncn2C [Compound 160, 3-ethyl-N-(2-hydroxyethyl)-4-(methyl(1-methyl-1H-imidazo[4,5-c]pyridin-6-yl)amino)benzamide] | > 1000 nM | 0.01 to 100 nM | > 1000 nM | > 1000 nM | – | –
CCc1cc(C2=CCN(C(=O)OCC#N)CC2)ccc1N(C)c1cc2c(cn1)ncn2C [Compound 216, Cyanomethyl 4-(3-ethyl-4-(methyl(1-methyl-1H-imidazo[4,5-c]pyridin-6-yl)amino)phenyl)-5,6-dihydropyridine-1(2H)-carboxylate] | 0.01 to 100 nM | 0.01 to 100 nM | 101 to 500 nM | – | – | > 1000 nM
CCNC(=O)N1CC=C(c2ccc(N(C)c3cc4c(cn3)ncn4C)c(CC)c2)CC1 [Compound 172, N-ethyl-4-(3-ethyl-4-(methyl(1-methyl-1H-imidazo[4,5-c]pyridin-6-yl)amino)phenyl)-5,6-dihydropyridine-1(2H)-carboxamide] | 0.01 to 100 nM | 0.01 to 100 nM | 101 to 500 nM | 1 to 500 nM | – | –
CCc1cc(-c2nc(C)no2)ccc1N(C)c1cc2c(cn1)ncn2C [Compound 178, N-(2-Ethyl-4-(3-methyl-1,2,4-oxadiazol-5-yl)phenyl)-N,1-dimethyl-1H-imidazo[4,5-d]pyridin-6-amine] | 101 to 500 nM | 0.01 to 100 nM | > 1000 nM | 501 to 1000 nM | – | –
CCc1cc(-c2ccc(O)nc2)ccc1N(C)c1cc2c(cn1)ncn2C [Compound 132, 5-(3-Ethyl-4-(methyl(1-methyl-1H-imidazo[4,5-c]pyridin-6-yl)amino)phenyl)pyridin-2-ol] | 0.01 to 100 nM | 0.01 to 100 nM | 101 to 500 nM | 501 to 1000 nM | – | –
CCc1cc(OCC#N)ccc1N(C)c1cc2c(cn1)ncn2C [Compound 295, 2-(3-ethyl-4-(methyl(1-methyl-1H-imidazo[4,5-c]pyridin-6-yl)amino)phenoxy)acetonitrile] | 0.01 to 100 nM | 0.01 to 100 nM | 101 to 500 nM | – | – | 1 to 500 nM
CCc1cc(-c2cnccn2)ccc1N(C)c1cc2c(cn1)ncn2C [Compound 144, N-(2-ethyl-4-(pyrazin-2-yl)phenyl)-N,1-dimethyl-1H-imidazo[4,5-c]pyridin-6-amine] | 0.01 to 100 nM | 0.01 to 100 nM | 501 to 1000 nM | > 1000 nM | – | –
CCc1cc(-c2cnn(CC(=O)C(C)(C)C)c2)ccc1N(C)c1cc2c(cn1)ncn2C [Compound 221, 1-(4-(3-ethyl-4-(methyl(1-methyl-1H-imidazo[4,5-c]pyridin-6-yl)amino)phenyl)-1H-pyrazol-1-yl)-3,3-dimethylbutan-2-one] | 101 to 500 nM | 0.01 to 100 nM | > 1000 nM | > 1000 nM | – | –
CCc1cc(C2=CCN(C(=O)CC(C)(C)O)CC2)ccc1N(C)c1cc2c(cn1)ncn2C [Compound 200, 1-(4-(3-ethyl-4-(methyl(1-methyl-1H-imidazo[4,5-c]pyridin-6-yl)amino)phenyl)-5,6-dihydropyridin-1(2H)-yl)-3-hydroxy-3-methylbutan-1-one] | 0.01 to 100 nM | 0.01 to 100 nM | 101 to 500 nM | 501 to 1000 nM | – | –

The next lines start with results.

IC50 (human TYK2) | IC50 (human JAK1) | IC50 (human JAK3) | IC50 [1, 2] | IC50 [1, 3] | SMILES | IC50 ([1]; Homo sapiens, HeLa)
0.01 to 100 nM | 0.01 to 100 nM | 101 to 500 nM | 1 to 500 nM | – | CCc1cc(C2=CCN(C(=O)C(C)(C)O)CC2)ccc1N(C)c1cc2c(cn1)ncn2C [Compound 231, 1-(4-(3-ethyl-4-(methyl(1-methyl-1H-imidazo[4,5-c]pyridin-6-yl)amino)phenyl)-5,6-dihydropyridin-1(2H)-yl)-2-hydroxy-2-methylpropan-1-one] | –
0.01 to 100 nM | 0.01 to 100 nM | 101 to 500 nM | – | 501 to 1000 nM | CCc1cc(C2CCN(C(=O)C(C)O)CC2)ccc1N(C)c1cc2c(cn1)ncn2C (stereo not drawn) [Compound 235, 1-(4-(3-ethyl-4-(methyl(1-methyl-1H-imidazo[4,5-c]pyridin-6-yl)amino)phenyl)piperidin-1-yl)-2-hydroxypropan-1-one] | –
0.01 to 100 nM | 0.01 to 100 nM | 101 to 500 nM | 1 to 500 nM | – | CCc1cc(-c2cscn2)ccc1N(C)c1cc2c(cn1)ncn2C [Compound 150, N-(2-ethyl-4-(thiazol-4-yl)phenyl)-N,1-dimethyl-1H-imidazo[4,5-c]pyridin-6-amine] | –
0.01 to 100 nM | 0.01 to 100 nM | 101 to 500 nM | 1 to 500 nM | – | CCc1cc(-c2cnn(Cc3ccc(F)cc3)c2)ccc1N(C)c1cc2c(cn1)ncn2C [Compound 238, N-(2-ethyl-4-(1-(4-fluorobenzyl)-1H-pyrazol-4-yl)phenyl)-N,1-dimethyl-1H-imidazo[4,5-c]pyridin-6-amine] | –
0.01 to 100 nM | 0.01 to 100 nM | 501 to 1000 nM | 1 to 500 nM | – | CCc1cc(OC)ccc1N(C)c1cc2c(cn1)ncn2C [Compound 271, N-(2-ethyl-4-methoxyphenyl)-N,1-dimethyl-1H-imidazo[4,5-c]pyridin-6-amine] | –
0.01 to 100 nM | 0.01 to 100 nM | 101 to 500 nM | 501 to 1000 nM | – | CCc1cc(-c2ccccc2)ccc1N(C)c1cc2c(cn1)ncn2C [Compound 164, N-(3-ethylbiphenyl-4-yl)-N,1-dimethyl-1H-imidazo[4,5-c]pyridin-6-amine] | –
0.01 to 100 nM | 0.01 to 100 nM | 501 to 1000 nM | 501 to 1000 nM | – | CCc1cc(-c2noc(CC#N)n2)ccc1N(C)c1cc2c(cn1)ncn2C [Compound 148, 2-(3-(3-ethyl-4-(methyl(1-methyl-1H-imidazo[4,5-c]pyridin-6-yl)amino)phenyl)-1,2,4-oxadiazol-5-yl)acetonitrile] | –
0.01 to 100 nM | 0.01 to 100 nM | 101 to 500 nM | – | 1 to 500 nM | CCC(=O)N1CCC(c2ccc(N(C)c3cc4c(cn3)ncn4C)c(CC)c2)CC1 [Compound 223, 1-(4-(3-ethyl-4-(methyl(1-methyl-1H-imidazo[4,5-c]pyridin-6-yl)amino)phenyl)piperidin-1-yl)propan-1-one] | –
